From paper PMC10786919, “Design-rules for stapled peptides with in vivo activity and their application to Mdm2/X antagonists” (Nature Communications, 2024) come the findings set out here.

Converted amounts (≈) assume the structure as drawn. Positions of bridges follow the written chain, without caps; N, C: chain ends. Non-standard residues stand in square brackets, D forms with d. Residues, ends and D or L forms follow the SMILES beside them. Lys(N3) = [N-]=[N+]=NCCCC[C@H](N)C(=O)O; R8 = C=CCCCCCC[C@@](C)(N)C(=O)O; Cba = N[C@@H](CC1CCC1)C(=O)O; S5 = C=CCCC[C@](C)(N)C(=O)O; βAla = NCCC(=O)O Some results are limits rather than exact numbers.

A short description of data set [1]: Lactate dehydrogenase (LDH) release assay. In kind it is cell-based. The conditions noted are these: LDH: Cytotoxicity assay EC50. Put shortly:
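LDH release, fluorometric membrane-integrity read-out; HCT116 with stable p53-responsive β-lactamase reporter; 8000 cells/well; 0.5% DMSO final; geometric mean, n≥3 biological replicates.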

Data set [2] can be described thus: Solubility assay (kinetic solubility, PBS pH 7). Format: physicochemical. The following applies: pH 7, PBS; for solubility kinetic: pH 7, aqueous buffer, kinetic from dmso stock, read-out: Solubility. Put shortly: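 Std: 10 mM stock → 100 µM in ACN/MeOH/DMSO (10:80:10). Sol. [µM] = (sample peak area / std peak area) × std conc.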
The subject of data set [3] is Ca Ski cell line. The following applies: 72 h. Put shortly: (§1)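 Compound dilution series (10 points, 3-fold, 10 mM top stock in DMSO) tested on overnight-plated Ca Ski cells in RPMI1640/10% FBS and on blasticidin-selected p53RE-bla HCT-116 cells in McCoy's 5A; read-out was CellTiter-Glo 2.0 luminescence after room-temperature equilibration.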
The subject of data set [4] is CellSensor p53RE-bla HCT-116 Cell Line. The conditions noted are these: 72 h. Put shortly: as §1
A short description of data set [5]: in vitro. The following applies: Nanoclick permeability assay EC50. Put shortly: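 Azido-peptide permeability was read as loss of NanoBRET signal (donor 450 nm, acceptor 610 nm) after adding NanoBret618-azide at 10 μM final.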
Data set [6] can be described thus: physchem.
Data set [7] in a line: Experimental LogD (partition coefficient). The following applies: not stated, Partition Coeff LogD.

As for `CC(=O)N[C@@H](CCCCN=[N+]=[N-])C(=O)NCCC(=O)N[C@@H](CC(C)C)C(=O)N[C@H](C(=O)N[C@@H](Cc1ccccc1)C(=O)N[C@]1(C)CCCCCCC=CCCC[C@@](C)(C(=O)N[C@@H](CCC(=O)O)C(=O)N[C@@H](C)C(=O)N[C@@H](C)C(N)=O)NC(=O)[C@H](CC2CCC2)NC(=O)[C@H](CCC(N)=O)NC(=O)[C@H](C)NC(=O)[C@H](Cc2c[nH]c3ccccc23)NC(=O)[C@H](Cc2ccc(O)cc2)NC(=O)[C@H](CCC(=O)O)NC1=O)[C@@H](C)O` [MP-182], the concentration giving a half-maximal response (EC50) in data set [1] is above 50 µM; in data set [3], above 49.8 µM; in data set [4] it was 1.31 µM. The solubility kinetic in data set [2] was 163 µM (≈ 328 µg/mL). Moreover, in data set [5], the cell entry EC50 is 0.223 µM. Further, the EPSA in data set [6] was found to be 251 A^2. This compound also displayed a logD in data set [7] of 2.5.
Turning to `CC(=O)N[C@@H](CCCCN=[N+]=[N-])C(=O)NCCC(=O)N[C@@H](CC(C)C)C(=O)N[C@@H](CCCNC(=N)N)C(=O)N[C@@H](Cc1ccccc1)C(=O)N[C@]1(C)CCCCCCC=CCCC[C@@](C)(C(=O)N[C@@H](CO)C(=O)N[C@@H](C)C(=O)N[C@@H](C)C(N)=O)NC(=O)[C@H](CC2CCC2)NC(=O)[C@H](CCC(N)=O)NC(=O)[C@H](C)NC(=O)[C@H](Cc2c[nH]c3ccccc23)NC(=O)[C@H](Cc2ccc(O)cc2)NC(=O)[C@H](CCC(=O)O)NC1=O` [MP-553] (Ac-[Lys(N3)][βAla]LRF[R8]EYWAQ[Cba][S5]SAA-NH2; staple 6-13), the EC50 in data set [1] was above 50 µM; in data set [3], above 49.8 µM; in data set [4], 6.78 µM. For the same compound, the Solubility entry in data set [2] was “Poorly Behaved”. Also, the cell entry EC50 in data set [5] came to 0.174 µM. The compound also came in with an EPSA in data set [6] of 232 A^2. Besides, in data set [7], the log distribution coefficient (logD) came to 2.86.
Take `CC(=O)N[C@@H](CCCCN=[N+]=[N-])C(=O)NCCC(=O)N[C@@H](Cc1c[nH]cn1)C(=O)N[C@H](C(=O)N[C@@H](Cc1ccccc1)C(=O)N[C@]1(C)CCCCCCC=CCCC[C@@](C)(C(=O)N[C@@H](CO)C(=O)N[C@@H](C)C(=O)N[C@@H](C)C(N)=O)NC(=O)[C@H](CC2CCC2)NC(=O)[C@H](CCC(N)=O)NC(=O)[C@H](C)NC(=O)[C@H](Cc2c[nH]c3ccccc23)NC(=O)[C@H](Cc2ccc(O)cc2)NC(=O)[C@H](CCC(=O)O)NC1=O)[C@@H](C)O` [MP-173, AZIDE-ATSP-7041 (L1H)] (Ac-[Lys(N3)][βAla]HTF[R8]EYWAQ[Cba][S5]SAA-NH2; staple 6-13): the half-maximal effective concentration (EC50) in data set [1] is above 50 µM; in data set [3], 35.3 µM; in data set [4] it was 5.14 µM. Also, the solubility kinetic in data set [2] amounted to 5 µM (≈ 9.97 µg/mL). The cell entry EC50 in data set [5] is 0.0406 µM. Also, the EPSA in data set [6] was 232 A^2. For the same compound, the logD in data set [7] turned out to be 2.73.
On to `CC(=O)N[C@@H](CCCCN=[N+]=[N-])C(=O)NCCC(=O)N[C@@H](CC(C)C)C(=O)N[C@H](C(=O)N[C@@H](Cc1ccccc1)C(=O)N[C@]1(C)CCCCCCC=CCCC[C@@](C)(C(=O)N[C@@H](CO)C(=O)N[C@@H](C)C(=O)N[C@@H](C)C(N)=O)NC(=O)[C@H](CC2CCC2)NC(=O)[C@H](CCC(N)=O)NC(=O)[C@H](C)NC(=O)[C@H](Cc2c[nH]c3ccccc23)NC(=O)[C@H](Cc2ccc(O)cc2)NC(=O)[C@H](CCCNC(=N)N)NC1=O)[C@@H](C)O` [MP-554] (Ac-[Lys(N3)][βAla]LTF[R8]RYWAQ[Cba][S5]SAA-NH2; staple 6-13), for which the figures for the EC50 in data set [1], in data set [3] and in data set [4] were 30.4 µM, 11.4 µM and 5.79 µM, respectively. Besides, the Solubility result in data set [2] was “Poorly Behaved”. In data set [5], the cell entry EC50 is 0.586 µM. Further, the EPSA in data set [6] was determined as 215 A^2. For the same compound, the pH-dependent lipophilicity (logD) in data set [7] worked out at 3.28.
